Measured values published in patent US11370774B2, “Substituted benzofuran, benzopyrrole, benzothiophene, and structurally related complement inhibitors” (BioCryst Pharmaceuticals, Inc., priority 2018, dated 2022).
pIC50: −log10 of the molar value.

Target: Factor D (Homo sapiens (Human), UniProt P00746)
Experiment: Factor D esterolytic assay (Z-Lys-SBzl substrate, DTNB, 405 nm)
Assay type: biochemical
Conditions: Z-Lys-SBzl 1.29 mM, pH 7.5, 10% DMSO, tested a minimum of three times, read-out: Measured Ki (IC50) Value for Compounds: IC50
How it was run: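 Human Factor D ([…]) with 1.29 mM Z-Lys-SBzl in 100 mM HEPES, 500 mM NaCl, pH 7.5, 10% DMSO; substrate added immediately or after room-temperature preincubation. Released thiol reacted with DTNB, rate followed at 405 nm for 600 sec, 690 nm background subtracted. IC50 from percent inhibition versus uninhibited rate, n≥3.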

Chain of Factor D (P00746 26-253): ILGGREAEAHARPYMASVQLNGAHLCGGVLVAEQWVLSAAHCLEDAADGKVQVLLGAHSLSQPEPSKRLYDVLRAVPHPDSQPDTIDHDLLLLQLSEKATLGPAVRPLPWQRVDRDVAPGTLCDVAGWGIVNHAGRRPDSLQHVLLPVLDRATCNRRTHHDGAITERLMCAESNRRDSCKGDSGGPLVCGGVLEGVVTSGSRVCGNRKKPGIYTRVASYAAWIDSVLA

pIC50 | SMILES
> 6.00 | COCc1cc2cc(COc3cc(C)ccc3CC(=O)O)cc(-c3cccc(CN)c3F)c2o1 [Compound 444c, 2-(2-((7-(3-(aminomethyl)-2-fluorophenyl)-2-(methoxymethyl)benzofuran-5-yl)methoxy)-4-methylphenyl)acetic acid]
> 6.00 | COCc1cc2cc(COc3cc(CN)ccc3CC(=O)O)cc(-c3cccc(CN)c3)c2o1 [Compound 445c, 2-(4-(aminomethyl)-2-((7-(3-(aminomethyl)phenyl)-2-(methoxymethyl)benzofuran-5-yl)methoxy)phenyl)acetic acid]
> 6.00 | NCc1cccc(-c2cc(COc3cc(CN)ccc3CC(=O)O)cc3cc(CO)oc23)c1 [Compound 446c, 2-(4-(aminomethyl)-2-((7-(3-(aminomethyl)phenyl)-2-(hydroxymethyl)benzofuran-5-yl)methoxy)phenyl)acetic acid]
> 6.00 | COc1ccc(CC(=O)O)c(OCc2cc(-c3ccnc(CN)c3)c3ccn(C(C)C)c3c2)c1 [Compound 447d, 2-(2-((4-(2-(aminomethyl)pyridin-4-yl)-1-isopropyl-1H-indol-6-yl)methoxy)-4-methoxyphenyl)acetic acid]
> 6.00 | COc1ccc(CC(=O)O)c(OCc2cc(-c3ccnc(CN)c3F)c3ccn(C(C)C)c3c2)c1 [Compound 448c, 2-(2-((4-(2-(aminomethyl)-3-fluoropyridin-4-yl)-1-isopropyl-1H-indol-6-yl)methoxy)-4-methoxyphenyl)acetic acid]
> 6.00 | CC(C)n1ccc2c(-c3cccc(CN)c3)cc(COc3cc(F)ccc3CC(=O)O)cc21 [Compound 449c, 2-(2-((4-(3-(aminomethyl)phenyl)-1-isopropyl-1H-indol-6-yl)methoxy)-4-fluorophenyl)acetic acid]
> 6.00 | CC(C)n1ccc2c(-c3cccc(CN)c3F)cc(COc3cc(F)ccc3CC(=O)O)cc21 [Compound 450b, 2-(2-((4-(3-(aminomethyl)-2-fluorophenyl)-1-isopropyl-1H-indol-6-yl)methoxy)-4-fluorophenyl)acetic acid]
> 6.00 | NCc1ccc(CC(=O)O)c(OCc2cc(-c3ccnc(CN)c3)c3occc3c2)c1 [Compound 451c, 2-(4-(aminomethyl)-2-((7-(2-(aminomethyl)pyridin-4-yl)benzofuran-5-yl)methoxy)phenyl)acetic acid]
> 6.00 | COCc1cc2cc(COc3cc(C)ccc3CC(=O)O)cc(-c3ccnc(CN)c3F)c2o1 [Compound 453d, 2-(2-((7-(2-(aminomethyl)-3-fluoropyridin-4-yl)-2-(methoxymethyl)benzofuran-5-yl)methoxy)-4-methylphenyl)acetic acid]
> 6.00 | COCc1cc2cc(COc3cc(C)ccc3CC(=O)O)cc(-c3ccnc(CN)c3)c2o1 [Compound 454d, 2-(2-((7-(2-(aminomethyl)pyridin-4-yl)-2-(methoxymethyl)benzofuran-5-yl)methoxy)-4-methylphenyl)acetic acid]
> 6.00 | NCc1ccc(CC(=O)O)c(OCc2cc(-c3cccc(CN)c3F)c3occc3c2)c1 [Compound 456c, 2-(4-(aminomethyl)-2-((7-(3-(aminomethyl)-2-fluorophenyl)benzofuran-5-yl)methoxy)phenyl)acetic acid]
> 6.00 | NCc1cccc(-c2cc(COc3ccccc3CC(=O)O)cc3cc(COc4ccccc4)oc23)c1 [Compound 457c, 2-(2-((7-(3-(aminomethyl)phenyl)-2-(phenoxymethyl)benzofuran-5-yl)methoxy)phenyl)acetic acid]
> 6.00 | COCc1cc2cc(COc3cc(C#N)ccc3CC(=O)O)cc(-c3cccc(CN)c3)c2o1 [Compound 458b, 2-(2-((7-(3-(aminomethyl)phenyl)-2-(methoxymethyl)benzofuran-5-yl)methoxy)-4-cyanophenyl)acetic acid]
> 6.00 | Cc1oc2c(-c3cccc(CN)c3)cc(COc3ccccc3CC(=O)O)cc2c1-c1ccoc1 [Compound 459h, 2-(2-((7-(3-(aminomethyl)phenyl)-3-(furan-3-yl)-2-methylbenzofuran-5-yl)methoxy)phenyl)acetic acid]
> 6.00 | Cc1cc2c(-c3ccnc(CN)c3)cc(COc3ccccc3CC(=O)O)cc2o1 [Compound 461c, 2-(2-((4-(2-(aminomethyl)pyridin-4-yl)-2-methylbenzofuran-6-yl)methoxy)phenyl)acetic acid]
> 6.00 | COCc1cc2cc(COc3ccc(F)cc3CC(=O)O)cc(-c3cccc(CN)c3)c2o1 [Compound 462c, 2-(2-((7-(3-(aminomethyl)phenyl)-2-(methoxymethyl)benzofuran-5-yl)methoxy)-5-fluorophenyl)acetic acid]
> 6.00 | COCc1cc2cc(COc3ccc(F)cc3CC(=O)O)cc(-c3cccc(CN)c3F)c2o1 [Compound 463b, 2-(2-((7-(3-(aminomethyl)-2-fluorophenyl)-2-(methoxymethyl)benzofuran-5-yl)methoxy)-5-fluorophenyl)acetic acid]
> 6.00 | COc1ccc(CC(=O)O)c(OCc2cc(-c3ccnc(CN)c3F)c3occc3c2)c1 [Compound 464d, 2-(2-((7-(2-(aminomethyl)-3-fluoropyridin-4-yl)benzofuran-5-yl)methoxy)-4-methoxyphenyl)acetic acid]
> 6.00 | COc1ccc(CC(=O)O)c(OCc2cc(-c3cccc(CN)c3F)c3occc3c2)c1 [Compound 465b, 2-(2-((7-(3-(aminomethyl)-2-fluorophenyl)benzofuran-5-yl)methoxy)-4-methoxyphenyl)acetic acid]
> 6.00 | COCc1cc2cc(COc3cc(OC)ccc3CC(=O)O)cc(-c3cccc(CN)c3)c2o1 [Compound 466c, 2-(2-((7-(3-(aminomethyl)phenyl)-2-(methoxymethyl)benzofuran-5-yl)methoxy)-4-methoxyphenyl)acetic acid]
> 6.00 | COCc1cc2cc(COc3cc(OC)ccc3CC(=O)O)cc(-c3cccc(CN)c3F)c2o1 [Compound 467b, 2-(2-((7-(3-(aminomethyl)-2-fluorophenyl)-2-(methoxymethyl)benzofuran-5-yl)methoxy)-4-methoxyphenyl)acetic acid]
> 6.00 | NCc1cccc(-c2cc(COc3c(CC(=O)O)cccc3-c3ccoc3)cc3ccoc23)c1 [Compound 468h, 2-(2-((7-(3-(aminomethyl)phenyl)benzofuran-5-yl)methoxy)-3-(furan-3-yl)phenyl)acetic acid]
> 6.00 | CCc1ccc(CC(=O)O)c(OCc2cc(-c3cccc(CN)c3)c3oc(F)cc3c2)c1 [Compound 469g, 2-(2-((7-(3-(aminomethyl)phenyl)-2-fluorobenzofuran-5-yl)methoxy)-4-ethylphenyl)acetic acid]
> 6.00 | CCc1ccc(CC(=O)O)c(OCc2cc(-c3cccc(CN)c3F)c3oc(F)cc3c2)c1 [Compound 470b, 2-(2-((7-(3-(aminomethyl)-2-fluorophenyl)-2-fluorobenzofuran-5-yl)methoxy)-4-ethylphenyl)acetic acid]
> 6.00 | COCc1cc2cc(COc3cc(OC)ccc3CC(=O)O)cc(-c3ccnc(CN)c3F)c2o1 [Compound 471d, 2-(2-((7-(2-(aminomethyl)-3-fluoropyridin-4-yl)-2-(methoxymethyl)benzofuran-5-yl)methoxy)-4-methoxyphenyl)acetic acid]
